Results: patent US20240024216A1, “METHODS AND MATERIALS FOR TREATING HAIR LOSS” (The Penn State Research Foundation, priority 2021, published 2024)

Tested on: human foreskin primary keratinocytes
Experiment: Scratch wound healing migration assay, primary keratinocytes
Format: cell-based
Procedure: Keratinocytes isolation, culture conditions and characterization—The isolated epidermis was placed in a petri dish containing HEPES buffer for 10 minutes at room temperature, then treated with trypsin at 37° C. until the epidermis became loose and medium cloudy due to keratinocytes release. The cloudy medium was collected and trypsin activity neutralized using fetal bovine serum (FBS) in 1:1 ratio. The epidermis suspended keratinocytes were centrifuges at 1500 rpm for 5 minutes. The pellet resuspended in KGM-GOLD keratinocytes medium (Lonza KGM gold and supplements, Catlog No. 00192151 and 00192152). The isolated foreskin cultured on a culture dish and placed at 37° C. in 5% CO2 incubator for 1-2 days to allow keratinocytes to adhere. Adhere keratinocytes were continued incubation in KGM-Gold medium until cells reach about 80% confluent.
Keratinocytes/Schwann cells/fibroblasts (7×10^4 cells/well keratinocytes and 3.5×10^4 cells/well of SCs and FBs) with their respective medium were seeded on pre-coated either with collagen-I/PLL/no 96-well ImageLock microplate for 6 hours (Incucyte-sartorius plate, Cat log 4379). For the drug treatment cells were pretreated with 4-AP prior to coating for 16-18 hours. Next, the wound scratch was created using IncuCyte automated system (Essen BioScience). After scratches the cells washed with PBS and the respective cells medium was added with or without 1 mM of 4-AP. The plate was incubated in Incucyte automated imaging system, wound healing and cells migration was monitored by time-lapse photography capturing every hour from 0 to 42 hours. The relative area of wound size and cells migration at each time point was analyzed using IncuCyte™ Scratch Wound Cell Migration Software Module (Essen BioScience) and the percent of wound healing was calculated from the area measured after scratching relative to the basal area as expressed in pixels.
Indirect immunofluorescence was used to identify, characterize and to analyze the proliferation after 4-AP treatment. […]

Nc1ccncc1 [4-AP, 4-aminopyridine]
time of complete scratch closure (1 mM 4-AP, control closed at 32 hours): 18 h
SOX10 and NGF expression in keratinocytes (4-AP treated vs no treatment): both increased
expression of keratins associated with keratinocyte differentiation (K10) (4-AP treated vs no treatment): did not increase
